{
  "source": "patent US10881663B2",
  "about": "“Method of treating pain in elderly patients with mild renal impairment” (Baudax Bio, Inc., priority 2018, dated 2021)",
  "key": {"[1]": {"conditions": "intravenous; Ketorolac Tromethamine Injection Prescribing Information; cited from earlier work"}, "[2]": {"assay": "Safety of single IV dose 30 mg meloxicam (Example 3)", "assay_type": "in vivo, human", "description": "(§1) This study was a single-center, open-label evaluation of the pharmacokinetics and safety, of single doses of meloxicam in elderly subjects with impaired renal function compared with healthy controls. The study enrolled 12 subjects. Eligible subjects were assigned to a study cohort based on their age and renal function. Renal function was assessed using below the equation for estimation of the glomerular filtration rate (GFR). GFR(mL/min/1.73 m^2)=175×(SCr)^−1.154×(Age)^−0.203×(0.742 if female)×(1.212 if African American)\nEnrolled subjects were matched between cohorts according to gender and BMI (±20%). Subjects were assigned to cohorts as follows: • Cohort 1 (n=6; 3 male, 3 female): subjects aged 65 to 80 years with impaired renal function (GFR 60-89 mL/min/1.73 m^2) • Cohort 2 (n=6; 3 male, 3 female): subjects aged 18 to 55 years with normal renal function (GFR≥90 mL/min/1.73 m^2).\nEnrolled subjects returned to the study center on the day before dosing (Day −1). During the treatment visit (Day −1 to Day 3), subjects received a single IV dose 30 mg (25 mg/mL) meloxicam. Whole blood samples were collected for pharmacokinetic (PK) analysis prior to dosing and 5, 10, 20, 30, and 45 minutes, and 1, 2, 4, 6, 12, 18, 24, 36, and 48 hours after dosing.\nSafety assessments included monitoring of AEs (adverse events), clinical laboratory tests, vital sign measurements, and ECGs. Upon completion of the treatment visit through Hour 48 (Day 3) assessments, the subjects were discharged from the study center."}, "[3]": {"assay": "Safety of repeat-dose IV meloxicam 30 mg after major surgery in elderly subjects with impaired renal function (Example 4)", "conditions": "for tolerability: advanced age"}, "[4]": {"assay": "Single-dose IV meloxicam pharmacokinetics in elderly subjects with mild renal impairment vs healthy controls (Example 3)", "assay_type": "in vivo, human", "conditions": "single IV dose 30 mg; for AUC(0-6) / AUC(0-t) / AUC(0-inf) / Cmax: iv, 30 mg; for AUC(0-6): AUC0-6 (Mean ± SD), heading: AUC0-6", "description": "as §1, with “(GFR).” for “(GFR). GFR(mL/min/1.73 m^2)=175×(SCr)^−1.154×(Age)^−0.203×(0.742 if female)×(1.212 if African American)”\nSCr=serum creatinine measured with a standardized assay.\nEnrolled subjects were matched between cohorts according to gender and BMI (±20%).\nEnrolled subjects returned to the study center on the day before dosing (Day −1)."}, "[5]": {"assay": "Injection site pain reported after intravenous meloxicam", "assay_type": "in vivo, human", "conditions": "patients receiving a dose of intravenous meloxicam"}, "[6]": {"assay": "Postoperative opioid analgesic use, IV meloxicam 30 mg vs placebo (Example 4)", "assay_type": "in vivo, human", "conditions": "for reduction in opioid use compared with placebo: 30 mg IV, p<0.05"}},
  "note": "Entries after “also recorded” stand apart in the source; their conditions may differ. Where two headings read alike, the source gives them in different places.",
  "data": [
    {"smiles": "O=C(c1ccccc1)c1ccc2n1CCC2C(=O)O", "note": "(stereo not drawn) [ketorolac]", "values": [
      {"measurement": "onset of pain relief", "setting": "[1]", "result": "up to 30 minutes"}
    ]},
    {"smiles": "Cc1cnc(NC(=O)C2=C(O)c3ccccc3S(=O)(=O)N2C)s1", "note": "[meloxicam, 4-hydroxy-2-methyl-N-(5-methyl-2-thiazolyl)-2H-1,2-benzothiazine-3-carboxamide-1,1-dioxide]", "values": [
      {"measurement": "infusion or infusion site reactions", "setting": "[2]; 30 mg as an IV infusion over 17-20 seconds", "result": "not associated with any infusion, or infusion site, reactions"},
      {"measurement": "intensity of AEs", "setting": "[2]; single IV dose 30 mg", "result": "generally mild or moderate in intensity"},
      {"measurement": "vital sign or ECG findings", "setting": "[2]; single IV dose 30 mg", "result": "no clinically significant vital sign or ECG (electrocardiogram) findings"},
      {"measurement": "incidence of adverse events (subjects with any event)", "setting": "[2]; single IV dose 30 mg, all 12 subjects", "result": 33.3, "unit": "%"},
      {"measurement": "tolerability", "setting": "[2]; single IV dose 30 mg, healthy subjects and subjects with mild renal impairment", "result": "well tolerated with no incidence of death, SAEs (severe adverse events), or discontinuations due to an AE; also recorded: safe and well tolerated"},
      {"measurement": "intensity of AEs", "setting": "[3]; 30 mg IV every 24 hours up to 7 doses", "result": "generally mild or moderate in intensity"},
      {"measurement": "tolerability", "setting": "[3]; 30 mg IV every 24 hours up to 7 doses after major surgery, impaired renal function", "result": "well tolerated"},
      {"measurement": "tolerability", "setting": "[3]; 30 mg IV every 24 hours up to 7 doses after major surgery, impaired renal function, listed as IV meloxicam", "result": "well tolerated with no deaths or discontinuations due to an AE"},
      {"measurement": "incidence of SAEs", "setting": "[3]; 30 mg IV every 24 hours up to 7 doses after major surgery, age 66-80 years, impaired renal function", "result": 2.3, "unit": "%"},
      {"measurement": "injection site AEs", "setting": "[3]; 30 mg IV over 15-30 seconds every 24 hours up to 7 doses", "result": "no injection site AEs"},
      {"measurement": "AUC(0-6)", "setting": "[4]; both sexes, human, plasma, Cohort 1 (65-80 years, mild renal impairment)", "result": "16100 ± 1700", "unit": "ng·h/mL"},
      {"measurement": "AUC(0-6)", "setting": "[4]; both sexes, human, plasma, Cohort 2 (18-55 years, normal renal function)", "result": "16300 ± 2170", "unit": "ng·h/mL"},
      {"measurement": "AUC(0-t)", "setting": "[4]; both sexes, human, plasma, Cohort 1 (65-80 years, mild renal impairment), read-out: AUC0-12 (Mean ± SD)", "result": "26000 ± 2690", "unit": "ng·h/mL"},
      {"measurement": "AUC(0-t)", "setting": "[4]; both sexes, human, plasma, Cohort 1 (65-80 years, mild renal impairment), read-out: AUC0-24 (Mean ± SD)", "result": "40600 ± 4750", "unit": "ng·h/mL"},
      {"measurement": "AUC(0-t)", "setting": "[4]; both sexes, human, plasma, Cohort 1 (65-80 years, mild renal impairment), read-out: AUC0-t (Mean ± SD)", "result": "70900 ± 18500", "unit": "ng·h/mL"},
      {"measurement": "AUC(0-inf)", "setting": "[4]; both sexes, human, plasma, Cohort 1 (65-80 years, mild renal impairment), read-out: AUC0-∞ (Mean ± SD)", "result": "71800 ± 19600", "unit": "ng·h/mL"},
      {"measurement": "AUC(0-t)", "setting": "[4]; both sexes, human, plasma, Cohort 1 (mild renal impairment), read-out: AUC0-t, Least Square Geometric Mean", "result": 69100, "unit": "ng·h/mL"},
      {"measurement": "AUC(0-inf)", "setting": "[4]; both sexes, human, plasma, Cohort 1 (mild renal impairment), read-out: AUC0-∞, Least Square Geometric Mean", "result": 69800, "unit": "ng·h/mL"},
      {"measurement": "Cmax", "setting": "[4]; both sexes, human, plasma, Cohort 1 (mild renal impairment), read-out: Cmax, Least Square Geometric Mean", "result": 5870, "unit": "ng/mL"},
      {"measurement": "Cmax", "setting": "[4]; both sexes, human, plasma, Cohort 1: aged 65 to 80 years, GFR 60-89 mL/min/1.73 m^2, plasma, read-out: Cmax (Mean ± SD)", "result": "5920 ± 842", "unit": "ng/mL"},
      {"measurement": "AUC(0-t)", "setting": "[4]; both sexes, human, plasma, Cohort 2 (18-55 years, normal renal function), read-out: AUC0-12 (Mean ± SD)", "result": "26400 ± 3920", "unit": "ng·h/mL"},
      {"measurement": "AUC(0-t)", "setting": "[4]; both sexes, human, plasma, Cohort 2 (18-55 years, normal renal function), read-out: AUC0-24 (Mean ± SD)", "result": "41000 ± 8670", "unit": "ng·h/mL"},
      {"measurement": "AUC(0-t)", "setting": "[4]; both sexes, human, plasma, Cohort 2 (18-55 years, normal renal function), read-out: AUC0-t (Mean ± SD)", "result": "67900 ± 22500", "unit": "ng·h/mL"},
      {"measurement": "AUC(0-inf)", "setting": "[4]; both sexes, human, plasma, Cohort 2 (18-55 years, normal renal function), read-out: AUC0-∞ (Mean ± SD)", "result": "68500 ± 22800", "unit": "ng·h/mL"},
      {"measurement": "AUC(0-t)", "setting": "[4]; both sexes, human, plasma, Cohort 2 (healthy control), read-out: AUC0-t, Least Square Geometric Mean", "result": 64500, "unit": "ng·h/mL"},
      {"measurement": "AUC(0-inf)", "setting": "[4]; both sexes, human, plasma, Cohort 2 (healthy control), read-out: AUC0-∞, Least Square Geometric Mean", "result": 65100, "unit": "ng·h/mL"},
      {"measurement": "Cmax", "setting": "[4]; both sexes, human, plasma, Cohort 2 (healthy control), read-out: Cmax, Least Square Geometric Mean", "result": 5580, "unit": "ng/mL"},
      {"measurement": "Cmax", "setting": "[4]; both sexes, human, plasma, Cohort 2: aged 18 to 55 years, normal renal function, plasma, read-out: Cmax (Mean ± SD)", "result": "5620 ± 713", "unit": "ng/mL"},
      {"measurement": "Tmax", "setting": "[4]; both sexes, human, plasma, all subjects (both cohorts)", "result": 4.8, "unit": "min"},
      {"measurement": "AUC0-t, Least Square Geometric Mean Ratio (%) (Cohort 1/Cohort 2)", "setting": "[4]", "result": 107, "unit": "%"},
      {"measurement": "AUC0-∞, Least Square Geometric Mean Ratio (%) (Cohort 1/Cohort 2)", "setting": "[4]", "result": 107, "unit": "%"},
      {"measurement": "Cmax, Least Square Geometric Mean Ratio (%) (Cohort 1/Cohort 2)", "setting": "[4]", "result": 105, "unit": "%"},
      {"measurement": "Tmax, Median (range)", "setting": "[4]; Cohort 1 (65-80 years, mild renal impairment)", "result": "0.08 (0.08-0.08) h"},
      {"measurement": "Tmax, Median (range)", "setting": "[4]; Cohort 2 (18-55 years, normal renal function)", "result": "0.08 (0.08-0.08) h"},
      {"measurement": "patients who reported injection site pain", "setting": "[5]", "result": 2, "unit": "%"},
      {"measurement": "reduction in opioid use compared with placebo", "setting": "[6]; Hour 0-24 interval", "result": 42.8, "unit": "%"},
      {"measurement": "reduction in opioid use compared with placebo", "setting": "[6]; Hour 24-48 interval", "result": 41.9, "unit": "%"},
      {"measurement": "statistically significant reductions in opioid use compared with placebo", "setting": "[6]; during treatment, 30 mg IV daily", "result": "up to 42.8%"}
    ]}
  ]
}
